Assay results taken from US11090293B2 (Ovid Therapeutics Inc., priority 2018, dated 2021).
Like-named read-outs stand apart in the source and are kept apart here.

Tests used:
[1] = human, in vivo, po
[2] = human, in vivo

| Compound | residual effect on Choice Reaction Time and Critical Flicker Fusion [1] | CLR ([2]; both, iv, 10 mg) [mL/min] | half-life (t½) ([2]; both, po) [h] | CLR ([2]; both, po, 2.5 mg) [mL/min] | AUC0-∞ ([2]; both, po, 5 mg) [ng·h/mL] | CLR ([2]; both, po, 5 mg) [mL/min] | AUC0-∞ ([2]; both, po, 10 mg) [ng·h/mL] | AUC0-∞ ([2]; both, po, 15 mg) [ng·h/mL] | CLR ([2]; both, po, 15 mg) [mL/min] | AUC0-∞ ([2]; both, po, 20 mg) [ng·h/mL] | CLR ([2]; both, po, 20 mg) [mL/min] | CL/F (CL for 10 mg IV) ([2]; iv, 10 mg) [mL/min] | Slope (90% CI) of AUC0-∞, dose proportionality assessment ([2]; po) |
| --- | --- | --- | --- | --- | --- | --- | --- | --- | --- | --- | --- | --- | --- |
| Oc1noc2c1CCNC2 [gaboxadol, 4,5,6,7-tetrahydroisoxazolo [5,4-c]pyridine-3-ol] | did not show residual effect | 208 | 1.5 | 196 | 171 | 222 | 346 | 539 | 234 | 669 | 265 | 438 | 0.98 (0.95, 1.01) |
| CCN(CC)CCN1C(=O)CN=C(c2ccccc2F)c2cc(Cl)ccc21 [Flurazepam] | showed significant effect | – | – | – | – | – | – | – | – | – | – | – | – |
